Reference: patent US12172965B2, “Drug conjugate comprising quinoline derivatives” (UNIVERSITE PARIS-SACLAY, priority 2018, dated 2024)
Where two headings read alike, the source gives them in different places. Non-standard residues stand in square brackets, D forms with d. Residues, ends and D or L forms follow the SMILES beside them. *: point of attachment. Dolaproine = CO[C@@H]([C@@H]1CCCN1)[C@@H](C)C(=O)O; Dil = CC[C@H](C)[C@H](NC)[C@@H](CC(=O)O)OC; X1 = C[C@@H](N*)[C@@H](O)c1ccccc1; NMeV = CN[C@H](C(=O)O)C(C)C

Experiments:
cell line HCT116 = conditions: molecules 4f/4j and 4g/4k of Alami et al. J. Med. Chem. 2019; cited from earlier work
[1] = system: K562R (chronic myeloid leukemia); experiment: Antiproliferative activity (IC50), CellTiter Glo, K562R; format: cell-based
Excerpt: (§1) The IC50 (as per accepted terminology) activities of the compounds according to the invention 4-((3-amino-4-methoxyphenyl)(methyl)amino) quinoline-2-carbonitrile (ICQN-1); 5-(5-((2-cyanoquinolin-4-yl)(methyl)amino)-2-methoxyphenyl)-N-hydroxypent-4-ynamide (ICQN-2); and (E)-3-(5-((2-cyanoquinolin-4-yl)(methyl)amino)-2-methoxyphenyl)-N-hydroxyacrylamide (ICQN-3) were compared with compounds of the prior art and with a commercial and clinical reference compound, in particular MMAE (monomethylauristatin E). The IC50 activities were measured on various different cancer cell lines HCT116 (colorectal tumour), A549 (non-small cell lung cancer), NCI-N87 (gastric tumour), Mia-Paca-2 (pancreatic tumour), K562R (chronic myeloid leukemia), SKOV3 (ovarian tumour), SKBr3 (breast tumour, Her2 overexpression), MCF7 (breast tumour) and MDA-MB231 (breast tumour).
(§2) The cancer cell lines were obtained from the American Culture Collection (ATCC, Rockville, MD) or from the German collection of microorganisms and cell cultures of the Leibniz Institute (DSMZ, Braunschweig-Germany) or from the European collection of cell cultures (ECACC, England). The cancer cell lines were cultured according to the supplier's instructions.
(§3) The A549 lung carcinoma cells, K562R myeloid leukemia cells, and the NCI-N87 gastric carcinoma cells were cultured in Gibco Roswell Park Memorial Institute (RPMI) 1640 medium supplemented with 10% foetal calf serum (FCS) and 1% glutamine. The Mia-Paca2 carcinoma cells were cultured in Gibco Dulbecco's Modified Eagle Medium (DMEM) supplemented with 10% foetal calf serum (FCS) and 1% glutamine.
(§4) The cells were counted using a Vi-cell XR (Beckman Coulter) and the cell viability was assessed by using 0.25% trypan blue dye exclusion assay. The cells were tested for the presence of mycoplasmas prior to the experiments with the Mycoplasma PCR detection kit (Applied Biological Materials Inc., Canada) according to the manufacturer's instructions, and only mycoplasma-free cells were used for the study. The cell lines were maintained at 37° C. in a humidified atmosphere containing 5% CO2.
(§5) After 24 hours of culturing, the cells were treated with the tested compounds at 10 different final concentrations. Each concentration was obtained from serial dilutions in culture medium starting from the stock solution. The control cells were treated with the carrier. The experiments were carried out in triplicate.
(§6) The measurements were performed after 72 hours of treatment using the CellTiter Glo assay (Promega) which makes it possible to measure through bioluminescence (quantification of adenosine triphosphate—ATP) the number of living cells, by using a PolarStar Omega microplate reader (BMG-Labtech).
(§7) The dose-response curves were plotted with the Graph Prism software application and the IC50 values were calculated using the Graph Prism software based on polynomial curves (four or five parameter logistic equations).
The K562R (chronic myeloid leukemia) cells have an MDR profile that allows them to be resistant to several chemotherapeutic compounds including the reference compound MMAE.

[2] = system: HCT116 (colorectal tumour); experiment: Antiproliferative activity (IC50), CellTiter Glo, HCT116; format: cell-based, human; conditions: free, unconjugated; 72 hours of treatment; read-out: HCT116 IC50
Excerpt: as §1, §2
(§8) The HCT-116 human colorectal carcinoma, SK-BR3 breast carcinoma, and SK-OV-3 ovarian carcinoma cells were cultured in Gibco McCoy's 5A medium supplemented with 10% foetal calf serum (FCS) and 1% glutamine.
as §4, §5, §6, §7

[3] = system: A549 (non-small cell lung cancer); experiment: Antiproliferative activity (IC50), CellTiter Glo, A549; format: cell-based; conditions: free, unconjugated; 72 hours of treatment; read-out: A549 IC50
Excerpt: as §1, §2, §3, §4, §5, §6, §7

NCI-N87 (gastric tumour) = experiment: Antiproliferative activity (IC50), CellTiter Glo, NCI-N87; format: cell-based; conditions: free, unconjugated, 72 hours of treatment, read-out: NIC-N87 IC50
Excerpt: as §1, §2, §3, §4, §5, §6, §7

[4] = system: Mia-Paca-2 (pancreatic tumour); experiment: Antiproliferative activity (IC50), CellTiter Glo, Mia-Paca-2; format: cell-based; conditions: free, unconjugated, 72 hours of treatment, read-out: Mia-Paca-2 IC50
Excerpt: as §1, §2, §3, §4, §5, §6, §7

SKOV3 (ovarian tumour) = experiment: Antiproliferative activity (IC50), CellTiter Glo, SKOV3; format: cell-based, human; conditions: free, unconjugated, 72 hours of treatment, read-out: SKOV3 IC50
Excerpt: as §1, §2, §8, §4, §5, §6, §7

[5] = system: SKBr3 (breast tumour, Her2 overexpression); experiment: Antiproliferative activity (IC50), CellTiter Glo, SKBr3; format: cell-based, human; conditions: free, unconjugated, 72 hours of treatment, read-out: SKBr3 IC50
Excerpt: as §1, §2, §8, §4, §5, §6, §7

MCF7 (breast tumour) = experiment: Antiproliferative activity (IC50), CellTiter Glo, MCF7; format: cell-based; conditions: free, unconjugated, 72 hours of treatment, read-out: MCF7 CI50
Excerpt: as §1, §2
(§9) The breast adenocarcinoma cells MDA-MB231 and MCF7 were cultured in Gibco RPMI 1640 culture medium supplemented with 10% foetal calf serum (FCS) and 1% glutamine.
as §4, §5, §6, §7

[6] = system: MDA-MB231 (breast tumour); experiment: Antiproliferative activity (IC50), CellTiter Glo, MDA-MB231; format: cell-based; conditions: free, unconjugated, 72 hours of treatment, read-out: MDA-MB231 CI50
Excerpt: as §1, §2, §9, §4, §5, §6, §7

Q: For C=C(c1ccc2c(c1)c1ccccc1n2C)c1cc(C#N)nc2ccccc12, which IC50 (cell line HCT116) is on record?
A: Its IC50 is 12 nM.

Q: Which results are given for C=C(c1ccc(OC)c(N)c1)c1cc(C)nc2ccccc12 [ICQO-1, reference compound]?
A: IC50 ([1]; Homo sapiens, K-562R, resistant cancer cells, MDR profile, read-out: K562R (PgP+) IC50): 1.98 nM; Ratio vs MMAE, K562R (PgP+) ([1]; resistant cancer cells, MDR profile): 17

Q: For C=C(c1ccc2c(c1)c1ccccc1n2C)c1cc(C)nc2ccccc12, which IC50 (cell line HCT116) is on record?
A: Its IC50 is 2 nM.

Q: Which results are given for CC[C@H](C)[C@@H]([C@@H](CC(=O)N1CCC[C@H]1[C@H](OC)[C@@H](C)C(=O)N[C@H](C)[C@@H](O)c1ccccc1)OC)N(C)C(=O)[C@@H](NC(=O)[C@@H](NC)C(C)C)C(C)C [MMAE, monomethylauristatin E, reference compound] (H-[NMeV]V[Dil][Dolaproine]-X1)?
A: IC50 [2]: 1.52 nM; IC50 [3]: 4.12 nM; IC50 (NCI-N87 (gastric tumour)): 6.58 nM; IC50 [4]: 3.02 nM; IC50 ([1]; free, unconjugated, 72 hours of treatment, read-out: K562R IC50): 19.7 nM; IC50 ([1]; resistant cancer cells, MDR profile, read-out: K562R (PgP+) IC50): 35 nM; IC50 (SKOV3 (ovarian tumour)): 0.08 nM; IC50 [5]: 0.06 nM; IC50 (MCF7 (breast tumour)): 0.58 nM; IC50 [6]: 1.25 nM

Q: Which results are given for COc1ccc(N(C)c2cc(C#N)nc3ccccc23)cc1/C=C/C(=O)NO [ICQN-3, (E)-3-(5-((2-cyanoquinolin-4-yl)(methyl)amino)-2-methoxyphenyl)-N-hydroxyacrylamide]?
A: IC50 (NCI-N87 (gastric tumour); Homo sapiens, NCI-N87): 0.1 nM; IC50 ([4]; Homo sapiens, MIA PaCa-2): 0.94 nM; IC50 ([1]; Homo sapiens, K-562R, free, unconjugated, 72 hours of treatment, read-out: K562R IC50): 0.56 nM; IC50 (SKOV3 (ovarian tumour); Homo sapiens, SK-OV-3): 2.64 nM; IC50 ([5]; Homo sapiens, SK-BR-3): 1.78 nM; IC50 (MCF7 (breast tumour); Homo sapiens, MCF7): 0.78 nM; IC50 ([6]; Homo sapiens, MDA-MB-231): 0.44 nM
